Reference: publication PMC4283194 (Neuroimage, 2014)
Read-outs that look alike come from different tables or passages of the source.

Columns and labels:
[1] = molecular target: T1, CB1 receptor (Homo sapiens, UniProt P21554); assay: [11C]MePPEP PET, VT by rank shaping regularised spectral analysis (RS-SA); assay type: in vivo; parameters: VT median: unit not given beside the values
T1 construct: assess the stability of CB1-receptor quantification in humans in vivo; from tissue; host or cells: living human brain (healthy volunteers), in vivo PET
Protocol: (§1) Continuous and intermittent blood samples were collected to allow the subsequent generation of metabolite-corrected arterial plasma time–activity curves (TACs) ([Hammers et al., 2008]). During the first 15 min blood was withdrawn continuously at a rate of 300 ml/h and radioactivity measured in a BGO detection system ([Jones et al., 1994]). To quantify plasma and whole blood radioactivity, as well as to allow quantification of the parent fraction of the radiotracer, intermittent discrete (10 ml) samples were taken with heparinised syringes before the scan (baseline) and at the following time points after scan start: 3, 5, 10, 15, 20, 30, and 50 min. At 75 min, a larger 17 ml sample was taken to allow quantification despite radioactivity decay. […] Continuous plasma input functions (IF) were derived by cross-calibration and combination of the continuous and discrete data, multiplication with the fitted plasma-over-blood ratio, and correction for parent radiotracer fraction, as described in detail in previous studies ([Hammers et al., 2007a], [Jones et al., 1994]).
VT values were generated directly from dynamic data sampled using ROIs with rank shaping (RS; orthogonalized-functional-base) regularisation of SA ([Turkheimer et al., 2003]) using in-house “Clickfit” software. As previously described by [Turkheimer et al. (2003)], we used the metabolite-corrected IF, a logarithmically spaced basis, an exponential range of bases extending to − 3.2, and the regional tissue TAC. TACs were weighted according to ([Gunn et al., 1998]):(3) Wi=Li/Tiforframei=1,2,3…35 [wi — weight for frame i; Li — length of frame i (seconds); and Ti — rate of true coincidences (per second)].
The VT for each ROI was then obtained as the plateau of the VT(R), where R is the expected signal-to noise ratio that is used as the regularisation parameter (R) in rank-shaping (Fig. 2; ([Turkheimer et al., 2003])).

[2] = system: CB1 receptor; parameters: method as in Terry et al., 2008, Terry et al., 2010b, Yasuno et al., 2008; conditions: determined using CB1 knockout mouse brain, ref Terry et al., 2008, Terry et al., 2010b, Yasuno et al.; cited from earlier work
[3] = parameters: method as in Terry et al., 2010a; conditions: 370 MBq injected; ref Terry et al., 2010a; cited from earlier work
[4] = molecular target: T1, CB1 receptor; assay: [11C]MePPEP PET, VT by classic spectral analysis parametric maps (SA-maps); assay type: in vivo
Protocol: as §1
The resulting parametric maps of VT values were then sampled in the eight selected ROIs.

[5] = molecular target: T1, CB1 receptor; assay: [11C]MePPEP PET, VT by reversible two-compartment model with variable blood volume (2kbv); assay type: in vivo
Protocol: as §1
In this model, three microparameters are derived: K1 is the influx of the ligand from the plasma to the tissue compartment containing free, non-specifically bound, and specifically bound ligand, k2 is the efflux constant from the ROI back to plasma ([Cunningham et al., 1991], [Huang et al., 1980]), and bv is a variable blood volume term. VT is then calculated according to the compartmental model equation ([Watabe et al., 2006]):(1) VT=K1/k2.

[6] = molecular target: T1, CB1 receptor; assay: [11C]MePPEP PET, modified standard uptake values (mSUV); assay type: in vivo; conditions: ~30–60 min after injection
Protocol: Modified standard uptake values (mSUVs; [Innis et al., 2007]) for frames 25–31, i.e. from 29 min 50 s to 58 min 50 s after injection, were also derived for the ROIs according to ([Goffin et al., 2011]):(4) activity×weightkg+70kg/2/injecteddose.

[7] = molecular target: T1, CB1 receptor; assay: [11C]MePPEP PET, VT by reversible three-compartment model with variable blood volume (4kbv); assay type: in vivo; parameters: unit not given beside the values
Protocol: as §1
K1 and k2 were calculated as for the 2kbv compartmental model described above; in addition, two additional rate constants were estimated to describe transfer relating to the third compartment: k3, which describes the transfer from the free and non-specifically bound compartment to the specifically bound (third) compartment; and k4, which describes the opposite transfer ([Cunningham et al., 1991], [Huang et al., 1980]). Again, a variable blood volume term was also computed. According to compartmental model equations ([Gunn et al., 2001], [Watabe et al., 2006]):(2) VT=K1/k21+k3/k4.

[8] = molecular target: T1, CB1 receptor; assay: [11C]MePPEP PET, VT by classic spectral analysis on ROI data (SA-ROIs); assay type: in vivo; parameters: unit not given beside the values
Protocol: as §1
Volumes of distribution (VTs) ([Innis et al., 2007]) for each ROI were obtained from the dynamic images and the metabolite-corrected IFs using spectral analysis (SA) ([Cunningham and Jones, 1993], [Cunningham et al., 1993], [Turkheimer et al., 1994]). The fast frequency boundary was kept at the default value of 0.1 s^− 1. […] Based on previous work with another tracer with relatively slow kinetics ([Hammers et al., 2007a]), we changed this to 0.00063 s^− 1 (log10 = − 3.20) in order to reduce noise.

[9] = system: CB1 receptor; parameters: method as in Terry et al., 2008, Terry et al., 2010b, Yasuno et al., 2008; conditions: monkey brain, ref Terry et al., 2008, Terry et al., 2010b, Yasuno et al.; cited from earlier work

T1 sequence (P21554 whole entry): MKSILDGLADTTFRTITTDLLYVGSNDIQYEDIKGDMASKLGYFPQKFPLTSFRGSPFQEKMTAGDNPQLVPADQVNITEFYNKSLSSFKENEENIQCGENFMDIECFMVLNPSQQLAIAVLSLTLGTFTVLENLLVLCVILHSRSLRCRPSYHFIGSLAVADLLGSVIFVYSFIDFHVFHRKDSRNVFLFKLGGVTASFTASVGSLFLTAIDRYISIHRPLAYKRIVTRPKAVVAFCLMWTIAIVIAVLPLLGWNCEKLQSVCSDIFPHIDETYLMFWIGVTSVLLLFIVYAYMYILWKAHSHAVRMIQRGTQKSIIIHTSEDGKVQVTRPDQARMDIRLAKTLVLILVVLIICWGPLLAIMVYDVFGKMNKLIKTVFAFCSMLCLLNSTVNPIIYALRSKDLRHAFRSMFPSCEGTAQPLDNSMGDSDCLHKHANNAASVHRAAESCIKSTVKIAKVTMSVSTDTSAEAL

With `COc1cccc([C@H]2C[C@@H](N[C@H](C)c3ccccc3)C(=O)N2c2ccc(C(F)(F)F)cc2)c1` [[^11C]MePPEP, (3R,5R)-5-(3-methoxy-phenyl)-3-((R)-1-phenyl-ethylamino)-1-(4-trifluoro-methyl-phenyl)-pyrrolidin-2-one] the VT median ([1]; ACG) was 9.9, the “VT from VT(R) plateau, example plot” value ([1]; Hippocampus, single example) was 12 and the VT median ([1]; IFG) was 9.9. For the same compound, the VT median ([1]; Pallidum) was 10.3, the VT median ([1]; Pons) was 4.3 and the VT median ([1]; Thalamus) was 6.5. For the same compound, the specific binding [2] was 65%, the “effective dose per scan” value [3] was ~ 1.7 mSv and the VT median ([4]; ACG) was 14.8. It also gave a VT median ([4]; Caudate) of 12.9, a VT median ([4]; Hippocampus) of 11.5 and a VT median ([4]; IFG) of 14.8. It also gave a VT median ([4]; Pallidum) of 15.8, a VT median ([4]; Pons) of 4.4 and a VT median ([4]; Thalamus) of 13.2. It also gave a VT median ([5]; ACG) of 10.3, a VT median ([5]; Hippocampus) of 8.0 and a VT median ([5]; Pallidum) of 10.8. For the same compound, the VT median ([5]; Pons) was 3.0, the VT median ([5]; Thalamus) was 5.1 and the mSUV median ([6]; ACG) was 3.2. It also gave a mSUV median ([6]; Accumbens) of 3.0, a mSUV median ([6]; Caudate) of 2.9 and a mSUV median ([6]; IFG) of 3.2. The mSUV median ([6]; Pons) was 0.9, the VT median ([7]; ACG) was 9.0 and the VT median ([7]; Accumbens) was 13.6. The VT median ([7]; Caudate) was 6.2, the VT median ([7]; Hippocampus) was 13.4 and the VT median ([7]; Pallidum) was 10.6. The VT median ([7]; Pons) was 5.3, the VT median ([7]; Thalamus) was 6.1 and the VT median ([8]; ACG) was 14.4. It also gave a VT median ([8]; Accumbens) of 13.9, a VT median ([8]; Hippocampus) of 12.4 and a VT median ([8]; IFG) of 13.9. For the same compound, the VT median ([8]; Pallidum) was 15.7, the VT median ([8]; Pons) was 6.0 and the VT median ([8]; Thalamus) was 9.6. The specific binding [9] was over 85%.
